Assay results from US20170273922A1, “UREA AND BIS-UREA BASED COMPOUNDS AND ANALOGUES THEREOF USEFUL IN THE TREATMENT OF ANDROGEN RECEPTOR MEDIATED DISEASES OR DISORDERS” (THE ROYAL INSTITUTION FOR THE ADVACEMENT OF LEARNING/MCGILL …, priority 2014, published 2017).
pIC50: −log10 of the molar value. Entries after “also recorded” stand apart in the source; their conditions may differ.

Key:
[1] = test system: PSA expression in LNCaP cells; test: Western blot of PSA expression in LNCaP cells; assay type: cell-based; conditions: 24 h; for suppression of PSA expression in LNCaP cells (FIG. 19C): whole medium
Experimental: FIG. 11: A) Compounds 562 and 746 suppressed DHT-induced AR activation in LNCaP cells which endogenously express the T877A mutant; B) Western blot analysis indicated compound 746 at 2.5 μM suppressed DHT-induced expression of the PSA in LNCaP cells. […] ENZ, enzalutamide; BIC, bicalutamide; EPI, EPI-001.
(§1) Experiments were in duplicate and repeated three times. […] LNCaP cells in whole medium were exposed to DMSO vehicle control or compounds for 24 h.

[2] = biological target: T1, glucocorticoid receptor (GR) (Homo sapiens, UniProt P04150); test: GR MMTV-luc reporter assay in PC3 cells; assay type: cell-based; parameters: interference with transcriptional activity of GR: dose or concentration left out as unconfirmed; conditions: for effect on GR transcriptional activation induced by DEX (MMTV-luc): 10 nM DEX, 24 h; for agonism of GR (MMTV-luc): absence of DEX
T1 construct: PC3 cells express endogenous GR; endogenous in cells; host or cells: PC3
T1 sequence (P04150 1-777): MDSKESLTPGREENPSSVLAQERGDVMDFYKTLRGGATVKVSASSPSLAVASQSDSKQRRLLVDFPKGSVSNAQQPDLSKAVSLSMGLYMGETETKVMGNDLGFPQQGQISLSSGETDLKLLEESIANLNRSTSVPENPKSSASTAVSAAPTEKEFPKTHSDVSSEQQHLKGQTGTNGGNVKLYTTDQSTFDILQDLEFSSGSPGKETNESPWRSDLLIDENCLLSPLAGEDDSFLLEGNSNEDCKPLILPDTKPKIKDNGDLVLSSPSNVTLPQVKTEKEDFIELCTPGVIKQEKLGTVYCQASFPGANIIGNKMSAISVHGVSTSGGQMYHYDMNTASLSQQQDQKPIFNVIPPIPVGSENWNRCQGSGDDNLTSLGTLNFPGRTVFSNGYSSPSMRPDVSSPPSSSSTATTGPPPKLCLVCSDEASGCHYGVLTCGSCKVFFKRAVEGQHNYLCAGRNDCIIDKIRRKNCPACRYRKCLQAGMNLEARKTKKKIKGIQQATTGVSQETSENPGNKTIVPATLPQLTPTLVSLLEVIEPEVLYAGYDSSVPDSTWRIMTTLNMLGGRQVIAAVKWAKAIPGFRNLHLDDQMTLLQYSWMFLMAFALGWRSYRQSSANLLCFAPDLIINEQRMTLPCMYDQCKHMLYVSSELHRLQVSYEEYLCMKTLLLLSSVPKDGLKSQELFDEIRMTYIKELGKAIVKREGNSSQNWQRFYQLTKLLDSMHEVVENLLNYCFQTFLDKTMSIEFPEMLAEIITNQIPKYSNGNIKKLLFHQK
Source text: A) PC3 cells express endogenous GR. MMTV-Luc and pRL-TK were transiently co-transfected into PC3 cells.
AR and GR are close homology proteins and both of them belong to steroid receptor family. […] MMTV-luc reporter and pRL-TK plasmids were transiently co-transfected into PC3 cells, which endogenously express GR. […] DEX is an agonist of the GR.

AR-v7 = biological target: T2, AR-v7 (Homo sapiens, UniProt P10275); test: AR-v7-dependent PSA-luc reporter assay in HEK293 cells; conditions: for potency relative to EPI-001 at 25 μM in suppressing constitutive activation of wild-type AR-v7: compounds at 2.5 μM
T2 sequence (P10275 1-644 isoform P10275-3): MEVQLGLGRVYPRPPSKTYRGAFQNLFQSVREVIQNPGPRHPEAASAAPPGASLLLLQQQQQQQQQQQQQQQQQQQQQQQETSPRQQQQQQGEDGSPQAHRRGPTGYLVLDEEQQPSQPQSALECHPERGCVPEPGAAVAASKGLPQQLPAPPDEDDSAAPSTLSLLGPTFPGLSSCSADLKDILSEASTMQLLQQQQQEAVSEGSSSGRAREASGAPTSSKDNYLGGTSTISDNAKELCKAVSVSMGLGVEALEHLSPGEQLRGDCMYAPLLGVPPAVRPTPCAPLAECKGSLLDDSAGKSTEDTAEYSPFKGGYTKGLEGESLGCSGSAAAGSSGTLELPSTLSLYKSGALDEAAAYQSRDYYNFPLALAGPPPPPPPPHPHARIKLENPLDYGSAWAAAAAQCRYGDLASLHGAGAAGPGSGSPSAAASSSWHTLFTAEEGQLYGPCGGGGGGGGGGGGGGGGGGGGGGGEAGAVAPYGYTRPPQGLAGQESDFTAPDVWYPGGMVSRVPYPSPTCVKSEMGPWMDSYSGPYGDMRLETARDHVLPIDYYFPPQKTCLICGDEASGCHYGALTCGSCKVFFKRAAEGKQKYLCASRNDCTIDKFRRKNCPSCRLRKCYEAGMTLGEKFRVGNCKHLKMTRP
Experimental: Cells were exposed to vehicle control or compounds at designated concentrations (μM) for 48 h.

[3] = biological target: T3, endogenous AR T877A mutant in LNCaP cells (Homo sapiens, UniProt P10275, T878A); test: PSA-luc reporter assay in LNCaP cells (endogenous AR T877A mutant); assay type: cell-based
T3 construct: LNCaP cells, which express endogenous AR T877A mutant; endogenous in cells; host or cells: LNCaP
T3 sequence (P10275 1-920 T878A): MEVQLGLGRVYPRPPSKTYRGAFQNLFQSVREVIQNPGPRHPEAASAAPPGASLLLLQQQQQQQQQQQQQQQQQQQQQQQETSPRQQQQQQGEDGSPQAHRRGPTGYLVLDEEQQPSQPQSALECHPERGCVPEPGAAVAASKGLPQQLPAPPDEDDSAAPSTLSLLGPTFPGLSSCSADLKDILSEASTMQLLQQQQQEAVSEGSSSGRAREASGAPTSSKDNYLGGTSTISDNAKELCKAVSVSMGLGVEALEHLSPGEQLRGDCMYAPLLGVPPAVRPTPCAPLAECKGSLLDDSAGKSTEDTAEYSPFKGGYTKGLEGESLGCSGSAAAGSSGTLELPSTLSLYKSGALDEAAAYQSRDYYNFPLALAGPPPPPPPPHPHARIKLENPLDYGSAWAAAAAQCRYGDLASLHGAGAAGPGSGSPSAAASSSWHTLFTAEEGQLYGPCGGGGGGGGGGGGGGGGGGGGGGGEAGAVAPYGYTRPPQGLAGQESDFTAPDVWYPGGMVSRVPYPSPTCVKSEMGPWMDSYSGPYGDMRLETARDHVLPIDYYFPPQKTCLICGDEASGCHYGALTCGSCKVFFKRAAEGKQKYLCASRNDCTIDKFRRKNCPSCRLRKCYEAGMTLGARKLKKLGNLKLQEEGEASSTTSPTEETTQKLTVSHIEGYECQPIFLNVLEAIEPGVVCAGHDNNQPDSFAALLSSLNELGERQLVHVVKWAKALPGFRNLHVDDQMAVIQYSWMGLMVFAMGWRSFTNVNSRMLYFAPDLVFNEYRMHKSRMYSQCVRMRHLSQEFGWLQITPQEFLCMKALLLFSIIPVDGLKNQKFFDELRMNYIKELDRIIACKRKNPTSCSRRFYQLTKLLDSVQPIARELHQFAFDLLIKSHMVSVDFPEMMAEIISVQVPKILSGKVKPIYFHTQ
Experimental: as §1

O=C(Nc1cccc(C(F)(F)F)c1)Nc1ccc([N+](=O)[O-])c(C(F)(F)F)c1 [Compound 442]
suppression of PSA expression in LNCaP cells (FIG. 19C) [1]: dose-dependently suppressed
effect on GR transcriptional activation induced by DEX (MMTV-luc) ([2]; PC3 cells): inactive
suppression of GR transactivation induced by 10 nM DEX ([2]; 5 μM, PC3 cells): inactive
agonism of GR (MMTV-luc) ([2]; 5 μM): non-agonist
agonism of GR (MMTV-luc) ([2]; PC3 cells): non-agonist
inhibition of constitutive activation of AR-v7 (PSA-luc) (AR-v7; 24 h): inhibited
inhibition of DHT-induced activation of endogenous AR in LNCaP cells (PSA-luc) ([3]; 24 h): potently inhibit; also recorded: suppressed
effect of increasing DHT from 1 nM to 10 nM on inhibitory activity in LNCaP cells ([3]; PSA-luc, 24 h): not competed out

N#Cc1ccc(NC(=O)Nc2cccc(C(F)(F)F)c2)cc1C(F)(F)F [Compound 467]
suppression of PSA expression in LNCaP cells (FIG. 19C) [1]: dose-dependently suppressed
effect on GR transcriptional activation induced by DEX (MMTV-luc) ([2]; PC3 cells): inactive
suppression of GR transactivation induced by 10 nM DEX ([2]; 5 μM, PC3 cells): inactive
agonism of GR (MMTV-luc) ([2]; 5 μM): non-agonist
agonism of GR (MMTV-luc) ([2]; PC3 cells): non-agonist
inhibition of constitutive activation of AR-v7 (PSA-luc) (AR-v7; 24 h): inhibited
inhibition of DHT-induced activation of endogenous AR in LNCaP cells (PSA-luc) ([3]; 24 h): potently inhibit; also recorded: suppressed

N#Cc1ccc(NC(=O)Nc2cccc(C(F)(F)F)c2)cc1Cl [Compound 492]
effect on GR transcriptional activation induced by DEX (MMTV-luc) ([2]; PC3 cells): inactive
suppression of GR transactivation induced by 10 nM DEX ([2]; 5 μM, PC3 cells): inactive
agonism of GR (MMTV-luc) ([2]; 5 μM): non-agonist
inhibition of constitutive activation of AR-v7 (PSA-luc) (AR-v7; 24 h): inhibited

O=C(N/C=C/c1cccc(C(F)(F)F)c1)Nc1ccncn1 [Compound 562]
suppression of PSA expression in LNCaP cells (FIG. 11B) ([1]; 10 nM DHT): suppressed
interference with transcriptional activity of GR [2]: do not interfere
effect on GR transcriptional activation induced by DEX (MMTV-luc) ([2]; PC3 cells): do not interfere; also recorded: selective towards the AR
inhibition of constitutive activation of AR-v7 (PSA-luc) (AR-v7; 2.5 μM): inhibit
inhibition of constitutive activation of AR-v7 (PSA-luc) (AR-v7; 24 h): dose-dependently inhibit
potency relative to EPI-001 at 25 μM in suppressing constitutive activation of wild-type AR-v7 (AR-v7): more potent than EPI-001 at 25 μM
inhibition of DHT-induced activation of endogenous AR in LNCaP cells (PSA-luc) ([3]; 24 h): suppressed; also recorded: potently inhibited; also recorded: good activity
pIC50 ([3]; FIG. 11): ~6.00

O=C(Nc1ccc(Br)nc1)Nc1cc(C(F)(F)F)cc(C(F)(F)F)c1 [Compound 566]
interference with transcriptional activity of GR [2]: do not interfere
effect on GR transcriptional activation induced by DEX (MMTV-luc) ([2]; PC3 cells): do not interfere
inhibition of constitutive activation of AR-v7 (PSA-luc) (AR-v7; 2.5 μM): inhibit
potency relative to EPI-001 at 25 μM in suppressing constitutive activation of wild-type AR-v7 (AR-v7): more potent than EPI-001 at 25 μM

O=C(Nc1cccc(C(F)(F)F)c1)Nc1ccc(NC(=O)c2ccccc2F)c(C(F)(F)F)c1 [Compound 746]
suppression of PSA expression in LNCaP cells (FIG. 11B) ([1]; 10 nM DHT): suppressed
suppression of DHT-induced expression of the PSA in LNCaP cells ([1]; 2.5 μM, 10 nM DHT): suppressed
interference with transcriptional activity of GR [2]: do not interfere
effect on GR transcriptional activation induced by DEX (MMTV-luc) ([2]; PC3 cells): do not interfere; also recorded: selective towards the AR
inhibition of constitutive activation of AR-v7 (PSA-luc) (AR-v7; 2.5 μM): inhibit
inhibition of constitutive activation of AR-v7 (PSA-luc) (AR-v7; 24 h): dose-dependently inhibit
inhibition of DHT-induced activation of endogenous AR in LNCaP cells (PSA-luc) ([3]; 24 h): suppressed; also recorded: potently inhibited; also recorded: good activity
inhibitory activity compared with EPI at 25 μM (FIG. 11) ([3]; compound at 2.5 μM): greater inhibitory activity than EPI at 25 μM
